# Data reported in PMC12073402, “A Selective MAP3K1 Inhibitor Facilitates Discovery of NPM1 as a Member of the Network” (Molecules, 2025).
# Assays:
# Experiment in all cases: KiNativ kinome profiling in PANC-1 lysate
# Format in all cases: binding
# [1] = molecular target: T1, p38b (Homo sapiens, UniProt Q15759); conditions: Other
# T1 construct: endogenous in cells; host or cells: PANC-1 cell lysate
# In short: (§1)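 PANC-1 lysates were incubated with 5 μM inhibitor or DMSO, then labeled with a desthiobiotin-ATP acyl-phosphate probe that biotinylates conserved kinase lysines. Tryptic peptides were streptavidin-enriched and quantified by LC-MS/MS, reported as % change in MS signal from duplicate treated and duplicate control samples.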
# [2] = test system: AMPKa1, AMPKa2; conditions: 5 µM
# In short: as §1
# [3] = molecular target: T2, RIPK1 (Homo sapiens, UniProt Q13546); conditions: Lys2
# T2 construct: endogenous in cells; host or cells: PANC-1 cell lysate
# T2 sequence (Q13546 whole entry): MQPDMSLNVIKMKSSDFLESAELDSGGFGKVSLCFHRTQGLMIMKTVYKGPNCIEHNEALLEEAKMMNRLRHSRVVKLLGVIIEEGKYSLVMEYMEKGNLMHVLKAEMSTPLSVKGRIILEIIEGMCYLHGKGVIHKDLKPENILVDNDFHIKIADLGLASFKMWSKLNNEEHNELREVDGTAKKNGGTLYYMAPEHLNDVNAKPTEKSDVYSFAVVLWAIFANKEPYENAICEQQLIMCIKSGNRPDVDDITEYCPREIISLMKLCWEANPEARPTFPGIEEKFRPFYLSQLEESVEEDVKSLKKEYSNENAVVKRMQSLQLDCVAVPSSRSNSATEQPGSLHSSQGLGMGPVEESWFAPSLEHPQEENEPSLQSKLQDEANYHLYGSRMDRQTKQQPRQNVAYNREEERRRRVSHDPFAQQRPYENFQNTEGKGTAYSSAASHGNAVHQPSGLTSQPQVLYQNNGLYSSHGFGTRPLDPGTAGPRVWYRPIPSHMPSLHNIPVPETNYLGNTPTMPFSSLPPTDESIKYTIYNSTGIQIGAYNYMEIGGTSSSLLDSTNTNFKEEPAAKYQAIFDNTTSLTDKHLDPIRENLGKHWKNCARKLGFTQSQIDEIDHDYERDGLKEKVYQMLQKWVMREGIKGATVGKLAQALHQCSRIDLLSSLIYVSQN
# In short: as §1
# [4] = molecular target: T3, MELK (Homo sapiens, UniProt Q14680); conditions: Lys2
# T3 construct: endogenous in cells; host or cells: PANC-1
# T3 sequence (Q14680 whole entry): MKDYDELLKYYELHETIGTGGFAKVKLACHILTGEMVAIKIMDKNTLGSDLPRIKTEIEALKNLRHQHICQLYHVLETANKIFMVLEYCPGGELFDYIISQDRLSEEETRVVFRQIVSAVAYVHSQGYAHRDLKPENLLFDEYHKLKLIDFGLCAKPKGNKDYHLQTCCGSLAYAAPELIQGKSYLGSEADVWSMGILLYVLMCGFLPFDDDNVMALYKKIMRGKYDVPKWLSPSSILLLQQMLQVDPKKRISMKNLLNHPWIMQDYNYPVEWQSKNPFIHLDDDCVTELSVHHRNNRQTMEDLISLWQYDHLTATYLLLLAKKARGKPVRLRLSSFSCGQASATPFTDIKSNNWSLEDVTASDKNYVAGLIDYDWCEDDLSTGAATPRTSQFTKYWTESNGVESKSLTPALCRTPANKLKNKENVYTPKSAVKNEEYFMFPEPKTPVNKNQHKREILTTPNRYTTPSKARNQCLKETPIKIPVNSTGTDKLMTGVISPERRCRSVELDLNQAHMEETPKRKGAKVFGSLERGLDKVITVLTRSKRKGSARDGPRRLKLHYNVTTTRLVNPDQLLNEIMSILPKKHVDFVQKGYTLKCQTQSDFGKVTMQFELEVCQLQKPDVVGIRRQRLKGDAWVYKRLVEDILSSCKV
# In short: as §1
# [5] = molecular target: T4, SNRK (Homo sapiens, UniProt Q9NRH2)
# T4 construct: endogenous in cells; host or cells: PANC-1 cell lysate
# T4 sequence (Q9NRH2 whole entry): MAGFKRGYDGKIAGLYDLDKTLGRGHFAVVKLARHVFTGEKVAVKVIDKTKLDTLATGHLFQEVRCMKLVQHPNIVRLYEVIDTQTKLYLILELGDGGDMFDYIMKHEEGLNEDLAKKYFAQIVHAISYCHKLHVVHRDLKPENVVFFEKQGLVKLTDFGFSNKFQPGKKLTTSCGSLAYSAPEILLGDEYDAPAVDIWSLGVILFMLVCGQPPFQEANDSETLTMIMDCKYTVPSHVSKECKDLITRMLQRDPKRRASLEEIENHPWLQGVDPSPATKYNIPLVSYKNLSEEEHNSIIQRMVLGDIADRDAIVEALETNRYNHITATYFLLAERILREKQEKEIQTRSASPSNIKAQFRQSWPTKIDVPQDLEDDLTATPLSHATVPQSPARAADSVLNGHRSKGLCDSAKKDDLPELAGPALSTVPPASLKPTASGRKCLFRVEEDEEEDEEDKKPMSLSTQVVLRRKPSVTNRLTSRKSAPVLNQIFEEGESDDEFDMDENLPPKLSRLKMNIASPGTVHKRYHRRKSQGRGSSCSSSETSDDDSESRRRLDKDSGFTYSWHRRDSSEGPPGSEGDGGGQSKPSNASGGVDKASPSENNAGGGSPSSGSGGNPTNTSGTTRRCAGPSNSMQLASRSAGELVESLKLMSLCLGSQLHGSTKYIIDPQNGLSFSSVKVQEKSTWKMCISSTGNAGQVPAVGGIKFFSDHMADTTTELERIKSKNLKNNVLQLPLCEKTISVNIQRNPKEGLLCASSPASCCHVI
# In short: as §1
# [6] = molecular target: T5, EphA2 (Homo sapiens, UniProt P29317); conditions: ATP Loop
# T5 construct: endogenous in cells; host or cells: PANC-1 lysate
# In short: as §1
# [7] = molecular target: T6, IRE1 (Homo sapiens, UniProt O75460)
# T6 construct: we opted to conduct a kinome screen (KiNativ) in PANC-1 cell lysates; endogenous in cells; host or cells: PANC-1 cell lysate
# T6 sequence (O75460 19-977): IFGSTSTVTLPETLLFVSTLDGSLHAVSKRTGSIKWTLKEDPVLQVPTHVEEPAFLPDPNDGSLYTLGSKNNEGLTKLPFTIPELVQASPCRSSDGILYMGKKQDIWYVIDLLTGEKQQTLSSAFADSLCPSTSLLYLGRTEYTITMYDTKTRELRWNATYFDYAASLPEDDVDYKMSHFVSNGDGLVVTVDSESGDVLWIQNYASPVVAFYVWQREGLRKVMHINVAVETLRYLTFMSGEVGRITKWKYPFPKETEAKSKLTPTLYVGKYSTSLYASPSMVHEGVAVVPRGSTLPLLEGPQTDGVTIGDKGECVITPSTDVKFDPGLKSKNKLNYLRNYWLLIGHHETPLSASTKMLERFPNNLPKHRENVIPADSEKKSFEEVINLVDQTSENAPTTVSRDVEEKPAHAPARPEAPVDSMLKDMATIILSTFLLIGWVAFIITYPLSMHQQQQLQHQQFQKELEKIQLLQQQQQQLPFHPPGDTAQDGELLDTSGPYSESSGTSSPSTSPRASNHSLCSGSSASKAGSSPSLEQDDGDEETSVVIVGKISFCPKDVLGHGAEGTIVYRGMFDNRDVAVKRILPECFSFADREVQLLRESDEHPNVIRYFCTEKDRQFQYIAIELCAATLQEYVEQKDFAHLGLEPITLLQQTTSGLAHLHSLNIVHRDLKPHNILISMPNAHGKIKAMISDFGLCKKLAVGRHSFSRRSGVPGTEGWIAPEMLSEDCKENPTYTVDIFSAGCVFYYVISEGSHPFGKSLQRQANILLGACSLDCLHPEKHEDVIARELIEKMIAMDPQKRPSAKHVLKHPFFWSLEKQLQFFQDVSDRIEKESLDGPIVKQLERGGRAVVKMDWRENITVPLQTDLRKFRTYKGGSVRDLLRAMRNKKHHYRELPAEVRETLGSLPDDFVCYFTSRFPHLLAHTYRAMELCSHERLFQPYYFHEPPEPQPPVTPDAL
# In short: as §1
# [8] = molecular target: T7, eEF2K (Homo sapiens, UniProt O00418); conditions: ATP
# T7 construct: endogenous in cells; host or cells: PANC-1 lysate
# In short: as §1
# [9] = molecular target: T8, PI4K2B (Homo sapiens, UniProt Q8TCG2); conditions: ATP
# T8 construct: endogenous in cells; host or cells: PANC-1 cell lysate
# In short: as §1
# [10] = molecular target: T9, CRK7 (Homo sapiens, UniProt Q9NYV4); conditions: Lys2
# T9 construct: endogenous in cells; host or cells: PANC-1 cell lysate
# In short: as §1
# [11] = molecular target: T10, CDC2 (Homo sapiens, UniProt P06493)
# T10 construct: endogenous in cells; host or cells: PANC-1 cell lysate
# T10 sequence (P06493 whole entry): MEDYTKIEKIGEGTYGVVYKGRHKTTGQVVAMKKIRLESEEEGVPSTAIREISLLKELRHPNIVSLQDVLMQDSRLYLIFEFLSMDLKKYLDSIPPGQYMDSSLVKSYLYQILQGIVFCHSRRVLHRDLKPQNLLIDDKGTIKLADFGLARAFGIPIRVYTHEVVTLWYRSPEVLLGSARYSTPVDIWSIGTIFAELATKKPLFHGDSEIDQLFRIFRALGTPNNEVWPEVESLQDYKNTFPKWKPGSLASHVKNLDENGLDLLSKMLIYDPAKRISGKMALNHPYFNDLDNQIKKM
# In short: as §1
# [12] = molecular target: T11, CSK (Homo sapiens, UniProt P41240)
# T11 construct: endogenous in cells; host or cells: PANC-1 cell lysate
# T11 sequence (P41240 whole entry): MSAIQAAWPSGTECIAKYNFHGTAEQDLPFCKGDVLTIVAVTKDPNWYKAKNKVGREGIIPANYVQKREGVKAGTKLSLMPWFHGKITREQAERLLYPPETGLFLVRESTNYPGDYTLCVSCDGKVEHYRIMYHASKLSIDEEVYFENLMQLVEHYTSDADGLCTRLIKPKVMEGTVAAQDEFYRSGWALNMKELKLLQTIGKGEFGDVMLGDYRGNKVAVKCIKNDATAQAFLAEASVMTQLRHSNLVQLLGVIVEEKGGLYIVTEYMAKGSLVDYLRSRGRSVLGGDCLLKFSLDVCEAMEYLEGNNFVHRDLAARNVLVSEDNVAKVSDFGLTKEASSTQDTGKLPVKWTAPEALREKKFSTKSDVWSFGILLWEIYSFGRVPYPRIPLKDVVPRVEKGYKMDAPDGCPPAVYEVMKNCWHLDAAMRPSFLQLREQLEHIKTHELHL
# In short: as §1
# [13] = test system: ZC1/HGK, ZC2/TNIK, ZC3/MINK; conditions: 5 µM; Lys2; DIKGQNVLLTENAEVK
# In short: as §1
# [14] = molecular target: T12, MAP2K1 (Homo sapiens, UniProt Q02750); conditions: Lys2
# T12 construct: endogenous in cells; host or cells: PANC-1 cell lysate
# T12 sequence (Q02750 whole entry): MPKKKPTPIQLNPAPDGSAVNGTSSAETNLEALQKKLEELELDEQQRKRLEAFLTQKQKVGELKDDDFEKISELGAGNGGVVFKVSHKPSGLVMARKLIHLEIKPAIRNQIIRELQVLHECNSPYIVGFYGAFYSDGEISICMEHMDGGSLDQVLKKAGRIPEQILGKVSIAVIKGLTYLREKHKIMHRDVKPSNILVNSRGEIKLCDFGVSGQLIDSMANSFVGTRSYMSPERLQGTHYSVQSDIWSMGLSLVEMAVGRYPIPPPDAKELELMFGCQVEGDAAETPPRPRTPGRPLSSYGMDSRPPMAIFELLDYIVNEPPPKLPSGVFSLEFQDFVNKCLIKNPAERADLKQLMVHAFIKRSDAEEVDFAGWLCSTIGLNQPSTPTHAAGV
# In short: as §1
# [15] = molecular target: T13, IRAK1 (Homo sapiens, UniProt P51617); conditions: Lys2
# T13 construct: we opted to conduct a kinome screen (KiNativ) in PANC-1 cell lysates; endogenous in cells; host or cells: PANC-1 cell lysate
# In short: as §1
# [16] = molecular target: T14, FAM20B (Homo sapiens, UniProt O75063); conditions: ATP
# T14 construct: endogenous in cells; host or cells: PANC-1 lysate
# In short: as §1
# [17] = test system: CDK11, CDK8; conditions: 5 µM; Lys2; DLKPANILVMGEGPER
# In short: as §1
# [18] = molecular target: T15, FRK (Homo sapiens, UniProt P42685); conditions: ATP Loop
# T15 construct: endogenous in cells; host or cells: PANC-1 lysate
# In short: as §1
# [19] = molecular target: T16, CLK2 (Homo sapiens, UniProt P49760); conditions: Lys2
# T16 construct: endogenous in cells; host or cells: PANC-1 cell lysate
# In short: as §1
# [20] = test system: FGFR1, FMS, PDGFRb, TYRO3; conditions: 5 µM; Lys1; VAVKMLK
# In short: as §1
# [21] = molecular target: T17, Wee1 (Homo sapiens, UniProt P30291); conditions: Lys2
# T17 construct: endogenous in cells; host or cells: PANC-1 cell lysate
# In short: as §1
# [22] = test system: KSR1, KSR2; conditions: 5 µM; ATP Loop; SKNVFYDNGK
# In short: as §1
# [23] = molecular target: T18, GSK3B (Homo sapiens, UniProt P49841); conditions: Lys2
# T18 construct: we opted to conduct a kinome screen (KiNativ) in PANC-1 cell lysates; endogenous in cells; host or cells: PANC-1 cell lysate
# T18 sequence (P49841 whole entry): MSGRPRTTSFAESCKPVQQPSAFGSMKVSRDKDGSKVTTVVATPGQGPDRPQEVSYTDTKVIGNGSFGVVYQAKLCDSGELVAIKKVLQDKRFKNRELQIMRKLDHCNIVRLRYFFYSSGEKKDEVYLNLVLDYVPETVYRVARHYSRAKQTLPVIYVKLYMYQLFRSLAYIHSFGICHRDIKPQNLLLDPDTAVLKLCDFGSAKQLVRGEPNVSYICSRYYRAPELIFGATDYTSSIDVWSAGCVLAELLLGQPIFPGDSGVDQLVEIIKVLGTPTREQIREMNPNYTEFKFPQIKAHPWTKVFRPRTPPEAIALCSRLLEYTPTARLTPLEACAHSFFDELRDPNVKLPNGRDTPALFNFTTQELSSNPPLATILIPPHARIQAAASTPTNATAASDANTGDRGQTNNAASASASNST
# In short: as §1
# [24] = molecular target: T19, MLK4 (Homo sapiens, UniProt Q5TCX8); conditions: Lys2
# T19 construct: endogenous in cells; host or cells: PANC-1
# In short: as §1
# [25] = molecular target: T20, MAP2K4 (Homo sapiens, UniProt P45985)
# T20 construct: endogenous in cells; host or cells: PANC-1 cell lysate
# T20 sequence (P45985 whole entry): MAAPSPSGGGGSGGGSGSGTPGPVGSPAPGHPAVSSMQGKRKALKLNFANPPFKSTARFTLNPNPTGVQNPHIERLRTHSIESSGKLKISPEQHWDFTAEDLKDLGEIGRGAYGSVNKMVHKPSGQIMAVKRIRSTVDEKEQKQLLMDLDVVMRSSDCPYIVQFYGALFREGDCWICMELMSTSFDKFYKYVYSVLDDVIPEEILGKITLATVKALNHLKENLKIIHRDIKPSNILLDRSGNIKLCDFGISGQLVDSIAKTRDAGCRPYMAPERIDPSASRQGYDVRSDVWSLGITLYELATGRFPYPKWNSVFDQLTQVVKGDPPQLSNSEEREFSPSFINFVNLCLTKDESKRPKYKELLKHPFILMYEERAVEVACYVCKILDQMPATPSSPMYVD
# In short: as §1
# [26] = molecular target: T21, MAP3K3 (Homo sapiens, UniProt Q99759); conditions: Lys1
# T21 construct: endogenous in cells; host or cells: PANC-1 cell lysate
# In short: as §1
structure (smiles),measurement,setting,value
"Cn1cc(-c2cnc3ccc(NC(=O)Nc4ccc(F)c(C(F)(F)F)c4)cc3n2)cn1 [51-106, 1-(4-Fluoro-3-(trifluoromethyl)phenyl)-3-(3-(1-methyl-1H-pyrazol-4-yl)quinoxalin-6-yl)urea]",inhibition at 5 µM,[1],≤ 0%
same,% Inhibition,"[2]; Lys1, VAVKILNR",7.5%
same,% Inhibition,"[2]; Lys2, DLKPENVLLDAHMNAK",8.7%
same,inhibition at 5 µM,[3],3.7%
same,inhibition at 5 µM,[4],≤ 0%
same,inhibition at 5 µM,"[5]; Lys1, VAVKVIDK",≤ 0%
same,inhibition at 5 µM,"[5]; Lys2, DLKPENVVFFEK",0.4%
same,inhibition at 5 µM,[6],≤ 0%
same,inhibition at 5 µM,"[7]; Lys1, GMFDNRDVAVKR",8.9%
same,inhibition at 5 µM,"[7]; Lys2, DLKPHNILISMPNAHGK",≤ 0%
same,inhibition at 5 µM,[8],6.3%
same,inhibition at 5 µM,[9],6.4%
same,inhibition at 5 µM,[10],14.3%
same,inhibition at 5 µM,"[11]; Lys1, TTGQVVAMKK",20.3%
same,inhibition at 5 µM,"[11]; Lys2, DLKPQNLLIDDK",≤ 0%
same,inhibition at 5 µM,"[11]; Protein Kinase Domain, KPLFHGDSEIDQLFR",≤ 0%
same,% Inhibition,"[12]; 5 µM, ATP Loop, VSDFGLTKEASSTQDTGKLPVK",NB (NB = No Binding (≤ 0))
same,inhibition at 5 µM,"[12]; Lys1, VAVKCIK",≤ 0%
same,% Inhibition,[13],NB (NB = No Binding (≤ 0))
same,inhibition at 5 µM,[14],11%
same,inhibition at 5 µM,[15],≤ 0%
same,inhibition at 5 µM,[16],6.6%
same,% Inhibition,[17],15.4%
same,inhibition at 5 µM,[18],≤ 0%
same,inhibition at 5 µM,[19],≤ 0%
same,% Inhibition,[20],NB (NB = No Binding (≤ 0))
same,inhibition at 5 µM,[21],2.2%
same,% Inhibition,[22],8.8%
same,inhibition at 5 µM,[23],≤ 0%
same,inhibition at 5 µM,[24],≤ 0%
same,inhibition at 5 µM,"[25]; ATP Loop, LCDFGISGQLVDSIAKTR",6%
same,inhibition at 5 µM,"[25]; Lys2, DIKPSNILLDR",≤ 0%
same,inhibition at 5 µM,[26],11.4%
